A short description of series [1]: Hemolysis test (HC50). As to conditions: red blood cells. As for the experimental part: Peptides were tested for activity using as minimum inhibitory concentration (MIC), and minimum bactericidal concentration (MBC) determinations. For certain peptides, a hemolysis test was also conducted to determine HC50 (μg/mL) as an indicator of hemolytic activity based on the concentration of an antimicrobial compound that kills 50% red blood cells.
In Table 27, the designations P2, P2M, P3, P3M, P4, P4M, P5, P5M, P6, and P6M refer to peptides P2_CCH, P2_CCH_T15K_P7R, P3_CCH, P3_CCH_D8K_Q23C, P4_CCH, P4_CCH_P31K, P5_CCH, P5_CCH_A19K, P6_CCH, and P6_CCH_S12K, respectively, as defined above.

The subject of series [2] is Escherichia coli—ATCC 25922 “wild type”. The series is classed as cell-based. The essentials:
(§1)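 MIC/MBC of cationic antimicrobial peptides by a broth method adapted for cationic peptides, against E. coli ATCC 25922 and clinical MDR isolates (ESBL, KPC, NDM). Some peptides made as TFA or acetate salts. Each run on a different day with multiple replicates.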

In series [3] the test system is Escherichia coli—Extended spectrum beta-lactamase. The format is cell-based. In short, it runs like this: as §1
The subject of series [4] is Escherichia coli—Carbapenemase-producing organism; New-Dehli Metallobetalactamase. The series is classed as cell-based. The essentials: as §1
Series [5] concerns Escherichia coli—Carbapenemase-producing organism; Klebsiella pneumoniae carbapenemase. The series is classed as cell-based. The essentials: as §1
The test system of series [6] is Methicillin resistant Staphylococcus aureus. The series is classed as cell-based. As to conditions: Methicillin resistant. As for the experimental part:
(§2) Independent experiments were conducted with different strains of Staphylococcus aureus—ATCC 29213 “wild type”; and Staphylococcus aureus—Methicillin resistant Staphylococcus aureus.
(§3) The ATCC (American Type Culture Collection) strains received from Cedarlane. Multi drug resistant (MDR) strains, as clinical isolates, were received from the laboratory of Dr. Linda Hoang.
(§4) Putative antimicrobial peptides were synthesized by GeneScript. A-list antimicrobial peptides re-synthesized by GeneScript. P2_CCH, P5_CCH, and P5_CCH_A19K were each synthesized under two conditions: standard synthesis using TFA, and the other with TFA-removal using acetate as a counter-ion. A MIC method, adapted for use with cationic antimicrobial peptides, was used to evaluate MIC antimicrobial activity (Hancock 1999).
(§5) The following data are presented to show the activity (MIC/MBC in μg/mL) of certain antimicrobial peptides described herein relative to a modified/synthetic version having a specified substitution. While data presented in tables above may be presented again, or may be represented in data provided in the tables below, such duplication is believed to assist the reader in readily noting comparisons. Different Run Numbers noted in the following tables denotes experiments conducted on different days, with each run reflecting multiple n values.

Series [7] concerns Staphylococcus aureus—ATCC 29213 “wild type”. The format is cell-based. The note with it: ATCC 29213. As for the experimental part: as §2, §3, §4, §5
Series [8] relates to Salmonella Heidelberg (MDR). The format is cell-based. The essentials: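 MIC/MBC in μg/mL determined by a broth MIC method adapted for cationic antimicrobial peptides against clinical-isolate multidrug-resistant strain. Some peptides were tested as TFA or acetate counter-ion preparations; runs on different days, each with multiple replicates.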
The subject of series [9] is Salmonella Enteritidis. The format is cell-based.
Description: as §4, §5

Results on two compounds are retold here after patent publication US12280090B2, “Antimicrobial peptides” (priority 2018, dated 2025).

One may read the HC50 as the concentration that lyses half of the red blood cells. A higher HC50 goes with less damage to red cells. For orientation: MBC means the smallest concentration meeting the test's criterion for killing. The low end stands for more potent killing, the high end for less potent killing. What is called MIC is the smallest concentration in the dilution series that meets the test's criterion for growth inhibition. A higher MIC goes with weaker potency.

Ends that are not written are not given here. Peptide text beside a SMILES is read from it.

For the compound `CC[C@H](C)[C@H](NC(=O)[C@@H](NC(=O)[C@@H]1CCCN1C(=O)[C@H](Cc1ccccc1)NC(=O)[C@@H](N)Cc1ccccc1)[C@@H](C)CC)C(=O)N[C@@H](C)C(=O)N[C@@H](CCCNC(=N)N)C(=O)N[C@@H](CC(C)C)C(=O)N[C@@H](C)C(=O)N[C@@H](C)C(=O)N[C@@H](CCCCN)C(=O)N[C@H](C(=O)N[C@H](C(=O)N1CCC[C@H]1C(=O)N[C@@H](CO)C(=O)N[C@@H](CC(C)C)C(=O)N[C@H](C(=O)N[C@@H](CS)C(=O)N[C@@H](CCCCN)C(=O)N[C@H](C(=O)N[C@H](C(=O)N[C@@H](CCCCN)C(=O)N[C@@H](CCCCN)C(=O)N[C@@H](CS)C(=O)O)[C@@H](C)O)C(C)C)C(C)C)[C@@H](C)CC)C(C)C` [Peptide P5_CCH_A19K] (H-FFPIIARLAAKVIPSLVCKVTKKC-OH; N-terminus and C-terminus assumed), the HC50 in series [1] (RPMI) fell in the range of 64 to 128 µg/mL. The “Minimum Inhibitory Concentration (MIC)” value was in the range of 4 to 16 µg/mL in series [2]; 4 to 16 µg/mL in series [3]; 4 to 16 µg/mL in [4]; 4 to 16 µg/mL in series [5]; 2 to 8 µg/mL in series [6]; 2 to 8 µg/mL in series [7]. Moreover, the “Minimum Inhibitory Concentration (MIC)” value in [8] and in series [9] was 16 to 64 µg/mL each time.
Turning to “FFPRVLRLANKFLPKIYCALPKSVGN [P2_CCH_T15K_P7R]”, the HC50 in series [1] (HC50 (hemolysis test)) was found to be 64 µg/mL. The “Minimum Inhibitory Concentration (MIC)” value in series [2] was 4 to 8 µg/mL; in series [3] it was 2 to 8 µg/mL; in [4] it was 4 to 8 µg/mL; in series [5], 8 µg/mL; in series [6], 32 to 64 µg/mL; in [7] it was 64 to 128 µg/mL. Also, the “Minimum Inhibitory Concentration (MIC)” value in series [8] lay in the range of 16 to 64 µg/mL; in [9] it was 32 to 64 µg/mL. Also, in series [5], the MBC amounted to 8 µg/mL. The compound further came in with an MIC in series [5] of 8 µg/mL.
